Assay results: publication PMC5578959, “Selective LRRK2 kinase inhibition reduces phosphorylation of endogenous Rab10 and Rab12 in human peripheral mononuclear blood cells” (Scientific Reports, 2017)

Key:
Type in all cases: binding
[1] = tested on: kinases other than LRRK2 (off-target kinases); test: KiNativ broad kinase profiling in human PBMCs; conditions: 100 nM, acutely isolated human PBMCs
Description: (§1) Compounds were shipped to ActivX Technologies (San Diego, US) where LRRK2 target engagement and broad kinase profiling was performed using KiNativ™ procedures. Live cell treatment of human peripheral blood mononuclear cells (PBMCs) at two compound concentrations (1 µM and 0.1 µM) were used to evaluate and compare in vitro target engagement and kinase selectivity, respectively (see Supplementary File 1).

PIP4K2A = tested on: T1, PIP4K2A; test: KiNativ profiling in human PBMCs; conditions: ATP
T1 construct: purchased ActivX Technologies (KiNativ)
Description: as §1

IRE1 = tested on: T2, IRE1; test: KiNativ profiling in human PBMCs; conditions: Lys2
T2 construct: purchased ActivX Technologies (KiNativ)
Description: as §1

MAP3K15,MAP3K5,MAP3K6 = test: KiNativ profiling in human PBMCs; conditions: Lys1
Description: as §1

LATS2 = tested on: T3, LATS2; test: KiNativ profiling in human PBMCs
T3 construct: purchased ActivX Technologies (KiNativ)
Description: as §1

IKKb = tested on: T4, IKKb; test: KiNativ profiling in human PBMCs
T4 construct: purchased ActivX Technologies (KiNativ)
Description: as §1

OSR1 = tested on: T5, OSR1; test: KiNativ profiling in human PBMCs; conditions: Lys2
T5 construct: purchased ActivX Technologies (KiNativ)
Description: as §1

PKR = tested on: T6, PKR; test: KiNativ profiling in human PBMCs
T6 construct: purchased ActivX Technologies (KiNativ)
Description: as §1

HPK1 = tested on: T7, HPK1; test: KiNativ profiling in human PBMCs
T7 construct: purchased ActivX Technologies (KiNativ)
Description: as §1

p38a = tested on: T8, p38a; test: KiNativ profiling in human PBMCs
T8 construct: purchased ActivX Technologies (KiNativ)
Description: as §1

CDC2 = tested on: T9, CDC2; test: KiNativ profiling in human PBMCs; conditions: Lys2
T9 construct: purchased ActivX Technologies (KiNativ)
Description: as §1

CHK2 = tested on: T10, CHK2; test: KiNativ profiling in human PBMCs
T10 construct: purchased ActivX Technologies (KiNativ)
Description: as §1

GCN2 = tested on: T11, GCN2; test: KiNativ profiling in human PBMCs
T11 construct: purchased ActivX Technologies (KiNativ)
Description: as §1

Wnk1,Wnk2,Wnk3 = test: KiNativ profiling in human PBMCs; conditions: Lys2
Description: as §1

MAP3K4 = tested on: T12, MAP3K4; test: KiNativ profiling in human PBMCs; conditions: Lys2
T12 construct: purchased ActivX Technologies (KiNativ)
Description: as §1

TBK1 = tested on: T13, TBK1; test: KiNativ profiling in human PBMCs; conditions: Lys1
T13 construct: purchased ActivX Technologies (KiNativ)
Description: as §1

PRP4 = tested on: T14, PRP4; test: KiNativ profiling in human PBMCs
T14 construct: purchased ActivX Technologies (KiNativ)
Description: as §1

MAP3K2 = tested on: T15, MAP3K2; test: KiNativ profiling in human PBMCs; conditions: Lys1
T15 construct: purchased ActivX Technologies (KiNativ)
Description: as §1

YANK3 = tested on: T16, YANK3; test: KiNativ profiling in human PBMCs; conditions: Lys2
T16 construct: purchased ActivX Technologies (KiNativ)
Description: as §1

CaMK1a = tested on: T17, CaMK1a; test: KiNativ profiling in human PBMCs
T17 construct: purchased ActivX Technologies (KiNativ)
Description: as §1

CaMKK2 = tested on: T18, CaMKK2; test: KiNativ profiling in human PBMCs
T18 construct: purchased ActivX Technologies (KiNativ)
Description: as §1

ILK = tested on: T19, ILK; test: KiNativ profiling in human PBMCs
T19 construct: purchased ActivX Technologies (KiNativ)
Description: as §1

NDR1 = tested on: T20, NDR1; test: KiNativ profiling in human PBMCs
T20 construct: purchased ActivX Technologies (KiNativ)
Description: as §1

STLK5 = tested on: T21, STLK5; test: KiNativ profiling in human PBMCs
T21 construct: purchased ActivX Technologies (KiNativ)
Description: as §1

NuaK2 = tested on: T22, NuaK2; test: KiNativ profiling in human PBMCs; conditions: Lys1
T22 construct: purchased ActivX Technologies (KiNativ)
Description: as §1

MAP3K6 = tested on: T23, MAP3K6; test: KiNativ profiling in human PBMCs; conditions: Lys2
T23 construct: purchased ActivX Technologies (KiNativ)
Description: as §1

FES = tested on: T24, FES; test: KiNativ profiling in human PBMCs; conditions: Lys1
T24 construct: purchased ActivX Technologies (KiNativ)
Description: as §1

RSK2 domain2 = tested on: T25, RSK2 domain2; test: KiNativ profiling in human PBMCs; conditions: Lys2
T25 construct: RSK2 domain2; purchased ActivX Technologies (KiNativ)
Description: as §1

smMLCK = tested on: T26, smMLCK; test: KiNativ profiling in human PBMCs
T26 construct: purchased ActivX Technologies (KiNativ)
Description: as §1

MAP2K6 = tested on: T27, MAP2K6; test: KiNativ profiling in human PBMCs
T27 construct: purchased ActivX Technologies (KiNativ)
Description: as §1

PKCa,PKCb = test: KiNativ profiling in human PBMCs; conditions: Lys2
Description: as §1

PCTAIRE1,PCTAIRE3 = test: KiNativ profiling in human PBMCs; conditions: Lys2
Description: as §1

[2] = tested on: ZC1/HGK,ZC2/TNIK,ZC3/MINK; test: KiNativ profiling in human PBMCs; conditions: Lys2
Description: as §1

QSK = tested on: T28, QSK; test: KiNativ profiling in human PBMCs; conditions: Lys1
T28 construct: purchased ActivX Technologies (KiNativ)
Description: as §1

PIK3CG = tested on: T29, PIK3CG; test: KiNativ profiling in human PBMCs; conditions: ATP
T29 construct: purchased ActivX Technologies (KiNativ)
Description: as §1

## Cn1cc(-c2c[nH]c3ncnc(N4CCOCC4)c23)cc1C#N [PFE-360]
[1]
  inhibition of off-target kinases: ≤ 60%
PIP4K2A; 0.1µM, peptide AKELPTLKDNDFINEGQK
  % Inhibition: -3.9%
PIP4K2A; 0.1µM, peptide YIIKTITSEDVAEMHNILK
  % Inhibition: -34.5%
PIP4K2A; 1µM, peptide AKELPTLKDNDFINEGQK
  % Inhibition: -16.3%
PIP4K2A; 1µM, peptide YIIKTITSEDVAEMHNILK
  % Inhibition: -40%
IRE1; 0.1µM
  % Inhibition: -14.5%
IRE1; 1µM
  % Inhibition: 10.8%
MAP3K15,MAP3K5,MAP3K6; 0.1µM
  % Inhibition: 26.2%
MAP3K15,MAP3K5,MAP3K6; 1µM
  % Inhibition: 53.5%
LATS2; 0.1µM, Lys1
  % Inhibition: -10.2%
LATS2; 0.1µM, Lys2
  % Inhibition: 5.5%
LATS2; 1µM, Lys1
  % Inhibition: 16.6%
LATS2; 1µM, Lys2
  % Inhibition: -0.4%
IKKb; 0.1µM, Lys1
  % Inhibition: -5%
IKKb; 0.1µM, Lys2
  % Inhibition: -6%
IKKb; 1µM, Lys1
  % Inhibition: -10.5%
IKKb; 1µM, Lys2
  % Inhibition: -31.2%
OSR1; 0.1µM
  % Inhibition: -20.9%
OSR1; 1µM
  % Inhibition: -5.1%
PKR; 0.1µM, Activation Loop
  % Inhibition: -1.7%
PKR; 0.1µM, Lys2
  % Inhibition: -0.1%
PKR; 1µM, Activation Loop
  % Inhibition: -6.6%
PKR; 1µM, Lys2
  % Inhibition: -9.3%
HPK1; 0.1µM, Lys1
  % Inhibition: -22.3%
HPK1; 0.1µM, Lys2
  % Inhibition: 1.2%
HPK1; 1µM, Lys1
  % Inhibition: 7.8%
HPK1; 1µM, Lys2
  % Inhibition: 0%
p38a; 0.1µM, Lys2
  % Inhibition: 7.1%
p38a; 0.1µM, Protein Kinase Domain
  % Inhibition: 7.5%
p38a; 1µM, Lys2
  % Inhibition: -2.9%
p38a; 1µM, Protein Kinase Domain
  % Inhibition: 1%
CDC2; 0.1µM, peptide DLKPQNLLIDDK
  % Inhibition: -1.5%
CDC2; 0.1µM, peptide DLKPQNLLIDDKGTIK
  % Inhibition: -4.2%
CDC2; 1µM, peptide DLKPQNLLIDDK
  % Inhibition: 4.1%
CHK2; 0.1µM, Lys1
  % Inhibition: 3.6%
CHK2; 0.1µM, Lys2
  % Inhibition: -6.7%
CHK2; 1µM, Lys1
  % Inhibition: -2.7%
CHK2; 1µM, Lys2
  % Inhibition: -12.6%
GCN2; 0.1µM, Lys1
  % Inhibition: 3.5%
GCN2; 0.1µM, Lys2
  % Inhibition: -3.6%
GCN2; 1µM, Lys1
  % Inhibition: -13.3%
GCN2; 1µM, Lys2
  % Inhibition: 2.5%
Wnk1,Wnk2,Wnk3; 0.1µM
  % Inhibition: 11.3%
Wnk1,Wnk2,Wnk3; 1µM
  % Inhibition: 1.3%
MAP3K4; 0.1µM
  % Inhibition: -0.3%
MAP3K4; 1µM
  % Inhibition: -7.3%
TBK1; 0.1µM
  % Inhibition: -29%
TBK1; 1µM
  % Inhibition: 2.1%
PRP4; 0.1µM, Lys2
  % Inhibition: -12.1%
PRP4; 0.1µM, Protein Kinase Domain
  % Inhibition: -9.2%
PRP4; 1µM, Lys2
  % Inhibition: -13.6%
PRP4; 1µM, Protein Kinase Domain
  % Inhibition: -18%
MAP3K2; 0.1µM
  % Inhibition: -14.1%
MAP3K2; 1µM
  % Inhibition: -24.4%
YANK3; 0.1µM
  % Inhibition: 8.2%
YANK3; 1µM
  % Inhibition: 13.5%
CaMK1a; 0.1µM, Lys1
  % Inhibition: -2.5%
CaMK1a; 0.1µM, Lys2
  % Inhibition: -12.3%
CaMK1a; 1µM, Lys1
  % Inhibition: 3.5%
CaMK1a; 1µM, Lys2
  % Inhibition: -25%
CaMKK2; 0.1µM, Lys1
  % Inhibition: -23.9%
CaMKK2; 0.1µM, Lys2
  % Inhibition: -16.3%
CaMKK2; 1µM, Lys1
  % Inhibition: -1.2%
CaMKK2; 1µM, Lys2
  % Inhibition: 4.6%
ILK; 0.1µM, Lys1
  % Inhibition: 4.8%
ILK; 0.1µM, Protein Kinase Domain
  % Inhibition: -4%
ILK; 1µM, Lys1
  % Inhibition: 6.2%
ILK; 1µM, Protein Kinase Domain
  % Inhibition: 26%
NDR1; 0.1µM, Lys1
  % Inhibition: -16.4%
NDR1; 0.1µM, Lys2
  % Inhibition: 5.8%
NDR1; 1µM, Lys1
  % Inhibition: -6%
NDR1; 1µM, Lys2
  % Inhibition: 1.6%
STLK5; 0.1µM, Activation Loop
  % Inhibition: -11%
STLK5; 0.1µM, Lys2
  % Inhibition: 10.9%
STLK5; 1µM, Activation Loop
  % Inhibition: -2.2%
STLK5; 1µM, Lys2
  % Inhibition: -15.8%
NuaK2; 0.1µM
  % Inhibition: 14.4%
NuaK2; 1µM
  % Inhibition: 4.6%
MAP3K6; 0.1µM
  % Inhibition: -5.9%
MAP3K6; 1µM
  % Inhibition: -0.1%
FES; 0.1µM
  % Inhibition: -0.3%
FES; 1µM
  % Inhibition: -5.7%
RSK2 domain2; 0.1µM
  % Inhibition: -7.4%
RSK2 domain2; 1µM
  % Inhibition: -13.8%
smMLCK; 0.1µM, Lys1
  % Inhibition: 1.5%
smMLCK; 0.1µM, Lys2
  % Inhibition: -14.6%
smMLCK; 1µM, Lys1
  % Inhibition: -16.9%
smMLCK; 1µM, Lys2
  % Inhibition: 3.3%
MAP2K6; 0.1µM, Lys1
  % Inhibition: -18%
MAP2K6; 0.1µM, Lys2
  % Inhibition: 14.6%
MAP2K6; 1µM, Lys1
  % Inhibition: 1.8%
MAP2K6; 1µM, Lys2
  % Inhibition: 6.2%
PKCa,PKCb; 0.1µM
  % Inhibition: -32.8%
PKCa,PKCb; 1µM
  % Inhibition: -10.6%
PCTAIRE1,PCTAIRE3; 0.1µM
  % Inhibition: 1.3%
PCTAIRE1,PCTAIRE3; 1µM
  % Inhibition: 11.4%
[2]; 0.1µM
  % Inhibition: 10.3%
[2]; 1µM
  % Inhibition: -7.3%
QSK; 0.1µM
  % Inhibition: -13%
QSK; 1µM
  % Inhibition: -12.1%
PIK3CG; 0.1µM
  % Inhibition: -1.2%
PIK3CG; 1µM
  % Inhibition: -7%
